According to US11793816B2, “Methods for enhancing cytotoxic cancer therapy through inhibition of ATG4B” (Northwestern University, priority 2019, dated 2023):
Read-outs that look alike come from different tables or passages of the source.

What was measured:
[1] = Pharmacokinetic studies in mice: NSC185058 in plasma, brain and liver by LC-MS/MS; type: in vivo; conditions: for Cmax / AUC / half-life: plasma; for Cmax: read-out: average maximum plasma concentration (Cmax); for AUC: read-out: Area under the curve (AUC) for the plasma; for half-life: read-out: elimination half-life (converted)
Procedure: FIG. 1. NSC185058 (NSC) effectively distributes to the plasma, the brain, and the liver with minimal toxicity in mice. (A) to (C) Mice were dosed with peanut oil vehicle or ATG4B antagonists NSC185058 at doses of 10 or 50 mg/kg body weight. Plasma, the brain, and the liver tissues were collected at the indicated time points. (A) Total concentrations of the NSC compound in plasma were measured by LC-MS/MS. The PK parameter of NSC in plasma was determined. (B) NSC levels in plasma were determined form 5 min to 24 hr post dosing. The chemical structure of NSC was shown. (C) NSC levels were determined in the plasma, the brain, and the liver tissues at 0.5 and 8 hr post dosing. (D) Hematoxylin and eosin stained section s of indicated organs that were treated with NSC (150 mg/kg body weight) or vehicle on Monday, Wednesday, and Friday for three weeks. Scale bars, 50 μm. n=3 mice/group/time point.
Athymic (Ncr nu/nu) mice were injected intraperitoneal (i.p.) with peanut oil vehicle or ATG4B antagonists NSC185058 (50 mg/kg body weight for high does group and 10 mg/kg body weight for low does group). Mouse blood was withdrawn by terminal cardiac puncture while the animals were anesthetized with isoflurane. Blood samples were collected in tubes containing K2EDTA as the anticoagulant at 5, 15, and 30 minutes; 1, 2, 4, 8, and 24 hours post-dose for treatment groups. Mouse brain and liver tissue were also collected from the study animals at 1, 2, 4, and 8 hours post-dose. Control group animals were sacrificed at 24 hours after vehicle injection. Blood samples were centrifuged within one hour of collection and plasma was frozen at approximately −80° C. until analyzed at for concentration of the drug. Total concentrations of the NSC185058 compound in the plasma, the liver, and the brain were measured by LC-MS/MS at Illinois Institute of Technology Research Institute.
The NSC was administered at the dose of 10 or 50 mg/kg body weight in group of three mice. At the indicated time points spanning a 24 hrs period ([…], 0.5, 1, 2, 4, 8, and 24 hour), the plasma, the brain, and the liver tissues were collected. Plasmid and extracts from the brain and the liver were analyzed by LC-MS/MS using method developed at the Illinois Institute of Technology Research Institute (IITRI). […] Plasma exposure appears to increase beyond the hinge in dose for the dosing range tested. The elimination half-life was 2 and 4 for the 10 and 50 mg/kg dose, respectively. […] To examine whether NSC is tolerated in mouse, we investigated the effect induced by NSC in mouse behavior or by pathologic analysis of vital organs including the brain, the heart, the liver, the lung, the kidney, and the spleen. Mice underwent treatments on Monday, Wednesday, and Friday for three week with either peanut oil (vehicle) or NSC (150 mg/kg body weight) in peanut oil. […] Animal tissues were collected one week after the last dosing and subject for hematoxylin and eosin staining.

[2] = system: mTORC1 and mTORC2 activity in GSC M83 and JK83 cells; test: Immunoblot of mTORC1 and mTORC2 activity in GSCs; type: cell-based; conditions: GSC83 and JK83 cells, 72 hr
Procedure: (§1) FIG. 5. A mTORC1/2 inhibitor AZD2014 inhibited cell survival, mTORC1 and mTORC2 activities in GSCs and glioma cells. (A) GSC M83 and JK83 and glioma cells U87 were treated with indicated concentration of AZD2014 for 72 h, then cell viability was evaluated. (B) GSC M83 and JK83 were treated with the indicated concentration of AZD2014 for 1 hr, or with 2 μM AZD2014 for the specified time. Cells were collected for immunoblot analysis. β-actin was used as a loading control; Results are representative of 2 independent experiments. *P<0.05, **P<0.01, paired two-way Student's t-test. Data are representative from three independent experiments with similar results.
(§2) FIG. 6. NSC enhanced the cytotoxicity of a mTORC1/2 inhibitor AZD2014 in GSCs. (A) GSC M83 and JK83 were exposed to DMSO control vs AZD2014 vs NSCs vs AZD2014 in combination with NSC for 72 hr. Cells were collected for immunoblot analysis using indicated antibodies. (B) Immunofluorescence analyses for LC3B puncta in GSC M83 and JK83 cells with indicated treatments. (C and D) GSC M83 and JK83 and/or neural progenitor cells (NPC) were treated as indicated in (A), cell viability was tested at 72 h after treatment (C), and cell apoptosis was measured by Annexin V FACS assay 48 h after treatment. Data are representative from three independent experiments with similar results.
IB assays were performed as previously described (Huang et al., 2016b). Specific antibodies were used according to the manufacturer's instructions: LC3B (#3868S), pAKT (Ser473; 4060), pAKT(Thr308; 4056), AKT (4691), pS6(S235/236; 2211), S6 (2317), phosphorylated 4E-binding protein 1 (p4EBP1) (Thr37/46; 2855), 4EBP1 (9644), p-mTOR (Ser2448; 2971S), p-mTOR (Ser2481; 2974S), mTOR (2972S), pULK1(Ser317; 14202T), pULK1 (Ser757; 8054T), ULK1(6439), LAMP2 (49067S) were from Cell Signaling Technology. Anti-β-actin (SC-47778) and anti-SQSTM1/p62 (SC-28359) antibodies were from Santa Cruz Biotechnology. An anti-Ki-67 antibody (AB9260) was from EMD Millipore.
mTOR kinases are crucial regulators of glioma cell growth, proliferation and survival (Akhavan et al., 2010). […] A strong inhibition was achieved by 1 μM with complete block of mTORC1/2 activities at 2 μM (FIG. 5B).
Since autophagy activation is considered as a cytoprotective factor that contribute to tumor survival when challenged by therapies, it is proposed that block of autophagy activation by NSC would further enhanced the cytotoxicity of dual TORC1/2 inhibitor AZD2014.

[3] = system: LC3B, p62/SQSTM-1 and LAMP2 in GSC M83 and JK83 cells; test: Immunoblot of autophagy markers (LC3B, p62, LAMP2) in GSCs treated with AZD2014 and NSC; type: cell-based; conditions: NSC in the presence of AZD2014
Procedure: as §1
as §2, with “results. […]” for “results.”

[4] = system: intracranial PDX GBM39 tumor xenografts; test: Intracranial PDX GBM39 xenograft model (BLI, body weight, survival); conditions: monotherapy
Procedure: (A) Designs for Combination Therapy of Targeting Autophagy using NSC (150 mg/kg, Monday, Wednesday, and Friday), IR (2 Gy/day for 5 consecutive days), TMZ (100 mg/kg/day), RT+NSC, TMZ+NSC or RT+TMZ+NSC for PDX GBM39 model. (B) Body weight curves of different groups. Values represent the mean±SEM (n=8). *p<0.05, **p<0.01 compared to vehicle controls. (C) Relative changes in bioluminescent (BLI) signals of intracranial xenograft tumors with vehicle control or indicated treatment. n=8/group. *p<0.05, **p<0.01 compared to vehicle controls. Values represent the mean±SEM (n=8). *p<0.05, **p<0.01 compared to vehicle controls. (D) Representative bioluminescent images of mice-bearing intracranial xenografts with indicated treatments. NSC, IR, TMZ, and the indicated combinations. Treatments were started at day 7 post implantation. Mice were imaged after the last treatment. […] (E) Kaplan-Meier (left) and log-rank p value analyses (right) of mice bearing GSC 83 orthotopic xenografts with indicated treatments. […]
Athymic (Ncr nu/nu) mice at 6-8 week age were obtained from Taconic Farms. […] When Bioluminescent imaging (BLI) was detected in all animal, which were randomized into different treatment groups. […] Mice were monitored every day until the onset of neurological symptoms due to tumor burden. The tumor growth was monitored using the bioluminescent imaging (BLI) station (Caliper Life Sciences).

[5] = athymic Ncr nu/nu, mouse, IP 10 mg/kg
[6] = athymic Ncr nu/nu, mouse, IP 50 mg/kg

## S=C(Nc1ccccn1)c1ccccn1 [NSC185058, N-pyridin-2-yl-pyridine-2-carbothioamide]
[1]
  blood-brain barrier penetration: excellent blood/brain barrier (BBB) penetration
[1]; athymic Ncr nu/nu, mouse, IP single dose 10 mg/kg
  Cmax: 2.6 µM
[1]; athymic Ncr nu/nu, mouse, IP single dose 50 mg/kg
  Cmax: 33 µM
[1]; athymic Ncr nu/nu, mouse, IP, brain vs plasma, read-out: average brain tissue concentration relative to that in the plasma at the same time points
  Kp: 0.4 to 1
[1]; athymic Ncr nu/nu, mouse, brain, 50 mg/kg, 0.5 hrs post IP dose, read-out: Average brain tissue concentration
  concentration at 0.5 h: 12000 ng/g
[1]; athymic Ncr nu/nu, mouse, brain, 50 mg/kg, 8 hrs post IP dose, read-out: Average brain tissue concentration
  concentration at 8 h: 4100 ng/g
[1]; [5]
  AUC: 2140 ng·h/mL
  half-life: 2 h
[1]; [6]
  AUC: 57200 ng·h/mL
  half-life: 4 h
[1]; listed as NSC
  blood-brain barrier penetration: penetrates the tumor blood-brain barrier at sufficient levels
[2]
  mTOR signaling and ULK1 phosphorylation: without affecting the mTOR signaling and ULK1 activity
[3]
  autophagy markers (LC3B conversion, p62 and LAMP2 degradation): attenuated autophagy induction
[4]
  survival analysis (growth-suppressive effects, FIG. 4E): not IR or NSC single treatment resulted in growth-suppressive effects
